In series [1] the test system is Jurkat. As to the kind of experiment: Effect on Histone H3 protein level in human Jurkat T cells at 0.1 to 2 uM incubated for 12 hrs by Western blot analysis. The conditions noted are these: dose 0.1-2 µM. Type of series: functional, cell-based. On the technique in general: In western blotting, separated proteins are transferred to a membrane and probed.
For series [2], the target named is T1, Histone deacetylase 7 (Homo sapiens, UniProt Q8WUI4).
T1 sequence (Q8WUI4 whole entry): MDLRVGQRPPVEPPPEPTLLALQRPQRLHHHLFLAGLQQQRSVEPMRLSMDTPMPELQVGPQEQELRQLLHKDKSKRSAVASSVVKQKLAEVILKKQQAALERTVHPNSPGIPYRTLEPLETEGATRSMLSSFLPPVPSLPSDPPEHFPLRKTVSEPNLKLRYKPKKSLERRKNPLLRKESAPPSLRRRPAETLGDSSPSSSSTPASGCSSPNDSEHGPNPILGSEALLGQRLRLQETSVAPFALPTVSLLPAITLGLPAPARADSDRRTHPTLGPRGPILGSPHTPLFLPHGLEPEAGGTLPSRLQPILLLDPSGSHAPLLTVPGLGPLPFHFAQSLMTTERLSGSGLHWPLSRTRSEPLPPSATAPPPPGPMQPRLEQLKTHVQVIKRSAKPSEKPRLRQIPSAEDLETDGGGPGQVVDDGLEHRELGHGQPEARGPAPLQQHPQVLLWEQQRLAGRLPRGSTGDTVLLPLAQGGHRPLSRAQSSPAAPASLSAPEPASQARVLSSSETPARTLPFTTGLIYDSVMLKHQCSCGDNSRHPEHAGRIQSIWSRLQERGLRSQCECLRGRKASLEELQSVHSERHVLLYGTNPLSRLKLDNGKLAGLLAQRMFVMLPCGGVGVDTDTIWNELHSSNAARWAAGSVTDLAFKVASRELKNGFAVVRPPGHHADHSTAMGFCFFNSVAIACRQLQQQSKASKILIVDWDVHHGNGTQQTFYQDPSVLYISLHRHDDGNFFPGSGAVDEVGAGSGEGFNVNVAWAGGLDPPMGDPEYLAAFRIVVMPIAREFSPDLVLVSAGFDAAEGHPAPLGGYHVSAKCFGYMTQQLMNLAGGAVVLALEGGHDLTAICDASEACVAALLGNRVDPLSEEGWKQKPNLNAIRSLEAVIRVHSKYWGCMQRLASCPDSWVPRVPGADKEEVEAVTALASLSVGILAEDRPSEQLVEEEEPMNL
As to the kind of experiment: Inhibition of N-terminal GST-tagged recombinant human HDAC7 (501 to 952 residues) extracted from baculovirus expression system using Ac-Leu-Gly-Lys (Tfa)-AMC as substrate preincubated for 5 mins followed by substrate addition and measured after 30 mins by fluorescence microplate reader analysis.

Series [3] is described as follows: Toxicity in C57 mouse assessed as change in ALB level at 20 mg/kg/day, IG administered for 14 days by heat map analysis. Type of series: organism-based. The conditions noted are these: in vivo, po, 336 h, time 14 day.
Series [4] in a line: Toxicity in C57BL/6 mouse model implanted with mouse B16-F10 cells assessed as morphological changes in heart at 20 mg/kg/day, ip administered for 14 days by H and E staining based analysis. Type of series: organism-based. Conditions: in vivo, 336 h, time 14 day.
Series [5] addresses Histone deacetylase 1 (Mus musculus) (UniProt O09106). The experiment in a line: Inhibition of HDAC1 in mouse B16-F10 cells assessed as increase in acetylated H3 level incubated for 12 hrs by Western blot analysis. Type of series: cell-based.
Series [6] can be described thus: Toxicity in C57 mouse assessed as myelosuppression by measuring MPV level at 20 mg/kg/day, IG administered for 14 days by heat map analysis. Type of series: organism-based. The conditions noted are these: in vivo, po, 336 h, time 14 day.
Series [7] relates to Jurkat. As to the kind of experiment: Effect on HDAC6 protein level in human Jurkat T cells at 0.1 to 2 uM incubated for 12 hrs by Western blot analysis. Type of series: functional, cell-based. Conditions: dose 0.1-2 µM.
For series [8], the system named is Jurkat. The experiment in a line: Cytotoxicity against human Jurkat T cells assessed as reduction in cell viability at 0.01 to 1 uM incubated for 48 hrs. Type of series: functional, cell-based. The conditions noted are these: dose 0.01-1 µM.
Series [9] deals with T2, Protein deacetylase HDAC6 (Mus musculus) (UniProt Q9Z2V5).
T2 sequence (whole entry): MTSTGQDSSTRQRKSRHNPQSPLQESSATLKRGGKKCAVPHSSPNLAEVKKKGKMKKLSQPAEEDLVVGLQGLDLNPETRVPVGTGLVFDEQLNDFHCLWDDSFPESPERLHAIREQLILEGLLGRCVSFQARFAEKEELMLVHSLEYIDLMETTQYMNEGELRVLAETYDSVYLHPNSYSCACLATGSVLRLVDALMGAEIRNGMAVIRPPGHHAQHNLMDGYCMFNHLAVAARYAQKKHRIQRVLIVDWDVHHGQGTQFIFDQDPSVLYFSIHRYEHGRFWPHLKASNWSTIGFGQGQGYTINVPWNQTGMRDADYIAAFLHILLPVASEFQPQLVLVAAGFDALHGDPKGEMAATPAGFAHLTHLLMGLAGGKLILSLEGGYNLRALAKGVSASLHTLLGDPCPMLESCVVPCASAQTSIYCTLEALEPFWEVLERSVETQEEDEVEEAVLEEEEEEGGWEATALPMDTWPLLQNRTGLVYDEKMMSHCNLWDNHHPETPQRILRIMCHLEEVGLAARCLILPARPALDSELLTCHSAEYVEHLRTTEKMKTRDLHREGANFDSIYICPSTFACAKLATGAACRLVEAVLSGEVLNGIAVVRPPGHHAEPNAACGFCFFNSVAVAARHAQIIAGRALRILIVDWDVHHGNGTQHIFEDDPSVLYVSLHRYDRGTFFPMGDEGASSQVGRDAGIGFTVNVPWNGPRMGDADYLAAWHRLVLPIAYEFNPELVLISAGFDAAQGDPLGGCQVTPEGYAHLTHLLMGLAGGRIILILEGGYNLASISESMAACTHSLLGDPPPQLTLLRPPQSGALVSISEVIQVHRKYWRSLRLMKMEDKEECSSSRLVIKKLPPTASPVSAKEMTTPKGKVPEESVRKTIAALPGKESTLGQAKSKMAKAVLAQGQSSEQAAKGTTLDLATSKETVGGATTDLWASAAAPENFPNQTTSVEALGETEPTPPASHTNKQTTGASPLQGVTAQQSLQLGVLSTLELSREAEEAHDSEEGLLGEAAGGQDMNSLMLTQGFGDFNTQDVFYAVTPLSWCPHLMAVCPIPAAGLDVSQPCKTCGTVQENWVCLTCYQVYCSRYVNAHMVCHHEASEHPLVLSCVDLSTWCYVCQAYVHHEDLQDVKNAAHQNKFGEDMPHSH
As to the kind of experiment: In vivo inhibition of HDAC6 in C57BL/6 mouse model implanted with mouse B16-F10 cells assessed as increase in acetylated alpha-tubulin protein level in tumor at 20 mg/kg/day, ip administered for 14 days by Western blot analysis. Type of series: functional, organism-based. The conditions noted are these: time 14.0 day.

Series [10] has as its system B16-F10. As to the kind of experiment: Antitumor immunity activity against mouse B16-F10 cells implanted in C57BL/6 mouse model assessed as CD3+ CD4+ T cell percentage in tumor at 20 mg/kg/day, ip administered for 14 days by flow cytometric analysis (reference value: 0.095 %). The conditions noted are these: time 14 day. Type of series: functional. In general terms: A flow cytometer gives signals particle by particle.

Series [11] relates to Jurkat. The experiment in a line: Effect on acetylated histone H3 protein level in human Jurkat T cells at 0.1 to 2 uM incubated for 12 hrs by Western blot analysis. Type of series: functional, cell-based. The conditions noted are these: dose 0.1-2 µM.
The nature of series [12]: Oral bioavailability in male Sprague-Dawley rat at 10 mg/kg measured after 48 hrs by triple quadrupole mass spectrometric analysis. Conditions: in vivo. Type of series: ADME, organism-based.

Active and inactive are the calls of the source. The calls are words filed in the database; no cut-off is given here. Where only a bound is given, the exact number is not on record here.

Histone deacetylase 1 (Mus musculus), sequence (O09106 whole entry): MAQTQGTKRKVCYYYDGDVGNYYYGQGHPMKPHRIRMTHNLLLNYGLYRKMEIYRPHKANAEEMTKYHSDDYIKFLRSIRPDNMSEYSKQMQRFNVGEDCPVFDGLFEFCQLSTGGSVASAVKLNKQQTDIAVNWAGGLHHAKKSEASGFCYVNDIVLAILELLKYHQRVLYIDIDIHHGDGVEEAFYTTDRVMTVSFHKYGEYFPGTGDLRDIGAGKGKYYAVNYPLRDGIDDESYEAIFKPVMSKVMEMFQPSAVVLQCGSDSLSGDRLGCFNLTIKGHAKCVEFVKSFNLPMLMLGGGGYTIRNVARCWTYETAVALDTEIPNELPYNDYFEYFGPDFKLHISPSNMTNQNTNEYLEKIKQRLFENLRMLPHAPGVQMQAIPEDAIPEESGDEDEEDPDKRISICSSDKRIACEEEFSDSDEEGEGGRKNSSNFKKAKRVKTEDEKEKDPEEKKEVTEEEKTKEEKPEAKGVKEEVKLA

As for `COc1nc(-c2cccc(-c3ccccc3)c2C)ccc1CNCCCCCCC(=O)NO`, the result in series [1], in [7] and in [8] was inactive. The IC50 (as a rule, the point on the concentration scale where inhibition reaches its midpoint) in series [2] was greater than 100 µM. For the same compound, the Activity entry was “Non-toxic” in series [3]; “Non-toxic” in series [4]; “Non-toxic” in series [6]; 11.5% in series [10]; “Active; Negligible Effect Observed” in series [11]. Also, the inhibition entry in [5] was “inactive”. For the same compound, the inhibition result in [9] is “Active”. The bioavailability (usually dose-corrected exposure relative to a reference, in per cent) in series [12] was 15.3%.

For the origin of these results see ChEMBL document CHEMBL6153170 (J Med Chem, 2025).
